Data from the CheMixHub drug solubility set.

Test: xn = mol fraction of the nth substance listed, in the solute-free solvent

Cc1nc(C)c(C)nc1C + CO + CC#N
solubility (g/100 g solution)
Conditions	273.15 K	278.15 K	283.15 K	288.15 K	293.15 K	298.15 K	303.15 K	308.15 K	313.15 K
x2 = 0.1	12.7	15	18.1	21.4	25.1	28.9	33.9	37.6	44.6
x2 = 0.2	17.3	20.5	23.4	26.7	30.8	34.9	40.1	43.5	50.5
x2 = 0.3	21.2	24.5	28.2	31.8	36.5	40.2	46	49.2	55.7
x2 = 0.4	25.6	28.9	32.5	36.4	41	44.3	50	53.8	60.4
x2 = 0.5	28.6	32	36.6	39.9	45.1	48.2	53.4	57.3	63.5
x2 = 0.6	31.3	34.5	39.2	42.7	47.6	51.5	56.2	60.5	67.4
x2 = 0.7	33.6	36.1	40.8	44.6	49.4	53.8	59	63.1	70
x2 = 0.8	34.6	37.3	42.2	45.7	50.8	54.8	61.3	64.9	71.2
x2 = 0.9	35	37.6	42.7	45.6	51	54.9	61.9	65.3	70.7

O=C(O)c1ccc(-n2nc(-c3ccccc3O)nc2-c2ccccc2O)cc1 + CC#N + O
298.15 K
Conditions	solubility (g/100 g solution)
x2 = 0.04651	0.126
x2 = 0.0989	0.161
x2 = 0.1583	0.316
x2 = 0.2264	0.736
x2 = 0.3051	1.86
x2 = 0.397	3.21
x2 = 0.506	4.64
x2 = 0.6372	5.9
x2 = 0.798	5.08

CCc1cccc2c3c([nH]c12)C(CC)(CC(=O)O)OCC3 (centres undefined) + CC(C)=O + CCCCCC
solubility (g/100 g solution)
Conditions	278.15 K	283.15 K	288.15 K	293.15 K	298.15 K	303.15 K	308.15 K	313.15 K	318.15 K	323.15 K
x2 = 0.2707	4.23	4.59	4.94	5.31	5.68	6.06	6.49	6.82	7.19	7.56
x2 = 0.4972	13.3	14.4	15.4	16.4	17.8	19	19.9	20.9	22	23
x2 = 0.69	22.1	23.7	25.3	26.8	28.7	31	32.8	34.7	36.7	38.4
x2 = 0.8558	20.2	21.8	23.3	24.9	26.6	28.4	29.9	31.4	33.3	34.8

Cl.c1ccc2c(CC3=NCCN3)cccc2c1 + CO + CC(C)O
solubility (g/100 g solution)
Conditions	278.15 K	283.15 K	288.15 K	293.15 K	298.15 K	303.15 K	308.15 K	313.15 K	318.15 K	323.15 K
x2 = 0.1724	0.41	0.484	0.577	0.695	0.819	1.01	1.16	1.42	1.62	1.85
x2 = 0.3192	0.793	0.94	1.05	1.29	1.46	1.74	2.05	2.38	2.74	3.14
x2 = 0.4456	1.3	1.58	1.8	2.14	2.45	2.88	3.31	3.94	4.53	5.08
x2 = 0.5556	1.91	2.41	2.82	3.29	3.8	4.3	5.07	6.02	6.76	7.78
x2 = 0.6522	2.34	2.72	3.12	3.71	4.22	4.92	5.63	6.51	7.33	8.47
x2 = 0.7377	2.88	3.52	4.25	5.06	5.99	6.93	7.8	8.95	10.2	11.5
x2 = 0.814	3.62	4.51	5.34	6.58	7.66	8.91	10.4	11.8	13.3	14.9
x2 = 0.8823	4.46	5.61	6.67	8.06	9.39	11	12.7	14.7	16.4	18.4
x2 = 0.944	5.43	6.55	7.62	9.25	10.7	12.9	15	17.3	19.4	21.8

Cl.c1ccc2c(CC3=NCCN3)cccc2c1 + COCCO + CC(C)O
solubility (g/100 g solution)
Conditions	278.15 K	283.15 K	288.15 K	293.15 K	298.15 K	303.15 K	308.15 K	313.15 K	318.15 K	323.15 K
x2 = 0.08067	0.345	0.391	0.44	0.493	0.56	0.628	0.702	0.778	0.867	0.926
x2 = 0.1649	0.526	0.602	0.687	0.775	0.873	0.969	1.09	1.19	1.32	1.42
x2 = 0.2529	0.638	0.792	0.944	1.03	1.25	1.45	1.56	1.82	1.98	2.32
x2 = 0.3449	0.753	0.926	1.09	1.32	1.53	1.8	2.05	2.36	2.58	2.87
x2 = 0.4412	1.03	1.18	1.29	1.51	1.68	1.89	2.09	2.36	2.6	2.87
x2 = 0.5422	1.45	1.58	1.73	1.92	2.17	2.43	2.69	2.97	3.24	3.61
x2 = 0.6482	1.84	2.01	2.28	2.46	2.77	2.98	3.37	3.59	3.82	4.19
x2 = 0.7595	2.35	2.52	2.78	3.06	3.34	3.67	4.04	4.45	4.93	5.36
x2 = 0.8767	2.49	2.71	3.03	3.29	3.7	3.95	4.34	4.64	4.96	5.33

O=C(O)c1ccc(-n2nc(-c3ccccc3O)nc2-c2ccccc2O)cc1 + CO + CC#N
298.15 K
Conditions	solubility (g/100 g solution)
x2 = 0.1246	4.33
x2 = 0.2426	7.73
x2 = 0.3544	11.2
x2 = 0.4606	14.2
x2 = 0.5616	16.4
x2 = 0.6577	17.6
x2 = 0.7493	18
x2 = 0.8367	17.2
x2 = 0.9202	15.3

Cl.NC(C=O)C(O)C(O)C(O)CO (centres undefined) + O + CO
solubility (g/100 g solution)
Conditions	283.15 K	288.15 K	293.15 K	298.15 K	303.15 K	308.15 K	313.15 K	318.15 K	323.15 K
x2 = 0.2	0.992	1.03	1.13	1.23	1.35	1.48	1.55	1.7	1.83
x2 = 0.4	2.16	2.53	2.73	2.95	3.19	3.51	3.82	4.32	4.72
x2 = 0.6	4.73	5.53	6	6.76	7.4	8.23	9.01	10	10.9
x2 = 0.8	10.2	11.5	12.8	13.9	15.2	16.7	18.1	19.7	21.3
x2 = 0.9	15.2	16.6	18	19.7	21	22.9	24.2	25.8	27.9

O=CC(O)C(O)C(O)CO (centres undefined) + CC(C)O + CCCCCC
solubility (g/100 g solution)
Conditions	x2 = 0.1	x2 = 0.2	x2 = 0.3	x2 = 0.4	x2 = 0.5	x2 = 0.6	x2 = 0.7	x2 = 0.8	x2 = 0.9
283.15 K	0.0751	0.111	0.142	0.164	0.188	0.271	0.405	0.615	0.82
293.15 K	0.0952	0.126	0.198	0.238	0.307	0.453	0.646	0.819	1.12
303.15 K	0.112	0.13	0.233	0.362	0.471	0.665	1	1.4	2.1
313.15 K	0.129	0.16	0.277	0.518	0.76	1.08	1.61	2.29	3.38
323.15 K	0.14	0.247	0.388	0.792	1.16	1.83	2.77	4	6.03

CC(=O)OC(OC(C)=O)c1ccc([N+](=O)[O-])o1 + C1CCOC1 + CC#N
solubility (g/100 g solution)
Conditions	278.15 K	283.15 K	288.15 K	293.15 K	298.15 K	303.15 K	308.15 K	313.15 K	318.15 K	323.15 K
x2 = 0.1463	5.45	7.32	9.5	12.1	15	18.6	22.7	27.8	33.5	40
x2 = 0.2961	9.28	11.7	14.9	18.5	23.1	28.4	34.3	40.7	47.5	54.4
x2 = 0.4354	12.3	15.2	19.6	24.6	29.7	35.9	42.6	49.4	56	62.3
x2 = 0.5816	14.6	17.7	23	28.6	34.3	40.8	47.9	54.4	61	67.2
x2 = 0.7445	17.2	21.4	26.5	32.5	38.5	45.1	51.9	58.3	64.6	70.5
x2 = 0.8896	23.6	28	33.2	39.3	45.3	51.9	57.8	63.6	68.8	73.9

CCc1cccc2c3c([nH]c12)C(CC)(CC(=O)O)OCC3 (centres undefined) + CCCCOC(C)=O + CCCCCC
solubility (g/100 g solution)
Conditions	278.15 K	283.15 K	288.15 K	293.15 K	298.15 K	303.15 K	308.15 K	313.15 K	318.15 K	323.15 K
x2 = 0.1568	0.52	0.667	0.805	0.936	1.08	1.23	1.41	1.62	1.86	2.07
x2 = 0.3309	3.1	3.48	3.93	4.43	5	5.64	6.39	7.21	8.15	9.12
x2 = 0.5268	4.5	5.13	5.79	6.5	7.27	8.13	9.13	10.2	11.5	12.9
x2 = 0.7478	7.51	8.4	9.35	10.4	11.5	12.8	14.2	15.8	17.5	19.4
